In patent publication US20150322033A1, “ANTIBACTERIAL AGENT” (priority 2012, published 2015) one finds MIC and MIC ratio data, which are given here for nine compounds.

Assay [1] deals with S. aureus FDA209P (ATCC 6538P). Nature of the assay: microbe, parasite or virus in culture. To be noted: Staphylococcus aureus. Type of assay: cell-based, Staphylococcus aureus. Put shortly:
(§1)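 Overnight TSB cultures at 37 °C adjusted to A578 0.3, diluted 500-fold in CAMHB and mixed 1:1 with compound in CAMHB; static overnight incubation at 37 °C. MIC reported in mg/L; Mu50 NR-1 also tested in some runs.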

The next assay has as its system S. aureus Mu50. The experiment in a line: microbe, parasite or virus in culture. The format is cell-based, Staphylococcus aureus. The settings on record: for MIC ratio: (MIC value for S. aureus FDA209P)/(MIC value for S. aureus Mu50); for MIC: Staphylococcus aureus. Put shortly: as §1
The subject of another assay is S. aureus Mu50 NR1-1. Nature of the assay: MIC by broth microdilution, S. aureus Mu50 NR1-1. Type of assay: cell-based. The settings on record: Staphylococcus aureus, MU50NR11; Example 3, Table 13; read-out: MIC (mg/L) Mu50 NR1-1 (S80F, w). On the procedure:
MIC values of the flavones and quinolone for the strains were measured in the same manners as those of Example 1, except that S. aureus Mu50 NR-1 was also used as Staphylococcus aureus in addition to S. aureus FDA209P and S. aureus Mu50, cell suspensions of the strains were prepared.
S. aureus Mu50 NR1-1 mentioned in Table 13 is a strain selected stepwise from the clinically isolated S. aureus Mu50 strain with deoxynybomycin, and it has a topoisomerase IV encoded by parC in which a […] (see, Hiramatsu K. et al., J. Antimicrob. Agents, 2012, June; 39 (6), 478-85).
In Table 13, the descriptions in the parentheses after the strains indicate the mutated amino acid residue and its position, as represented by (the mutation of topoisomerase IV resulting from the mutation of parCand the mutation of DNA gyrase resulting from the mutation of gyrA). The character “w” means wild-type, representing without mutation.
A general note: Broth dilution looks for growth in wells or tubes with falling amounts of substance.

Setting [2] is: Example 1, Tables 1 to 10, read-out: MIC (mg/L) FDA209P.
Setting [3] is: Example 2, Table 12, read-out: MIC (mg/L) S. aureus FDA209P.
Where [4] appears, read: Example 3, Table 13, read-out: MIC (mg/L) FDA209P (w, w).
[5] abbreviates: MU50, read-out: MIC (mg/L) Mu50, Example 1, Tables 1 to 10.
[6] abbreviates: MU50, read-out: MIC (mg/L) S. aureus Mu50, Example 2, Table 12.

SMILES strings stand for the structures. Values after ≈ are worked out from the molar mass of the structure shown. Where two headings read alike, the source gives them in different places. Some results are limits rather than exact numbers.

For the compound `O.O=c1c(O)c(-c2ccc(O)c(O)c2)oc2cc(O)cc(O)c12` [No. 1, 3,3′,4′,5,7-Pentahydroxyflavone Hydrate], the MIC was 64 mg/L in assay [1] (setting [2]); 64 mg/L in assay [1] (setting [3]); 64 mg/L in assay [1] (setting [4]); no more than 32 mg/L with S. aureus Mu50 (setting [5]); 32 mg/L in the assay with S. aureus Mu50 (setting [6]); 64 mg/L in the assay with S. aureus Mu50 NR1-1. Moreover, the MIC ratio in the assay on S. aureus Mu50 is 2.

Turning to `COc1cc(O)c2c(=O)c(OC)c(-c3ccc(O)c(OC)c3)oc2c1` [No. 66, 5-hydroxy-2-(4-hydroxy-3-methoxyphenyl)-3,7-dimethoxychromen-4-one], the MIC in assay [1] (setting [2]) was 128 mg/L (≈ 372 µM); in assay [1] (setting [3]), 128 mg/L (≈ 372 µM); in assay [1] (setting [4]), 128 mg/L (≈ 372 µM); with S. aureus Mu50 (setting [5]), 32 mg/L (≈ 92.9 µM); in the assay with S. aureus Mu50 (setting [6]), 32 mg/L (≈ 92.9 µM); in the assay with S. aureus Mu50 NR1-1, 128 mg/L (≈ 372 µM). The MIC ratio in the assay on S. aureus Mu50 is recorded as 4.

Regarding `O.O=c1c(O)c(-c2ccc(O)cc2)oc2cc(O)cc(O)c12` [No. 4, 3,4′,5,7-Tetrahydroxyflavone Hydrate], the MIC in assay [1] (setting [2]) came to 16 mg/L; in assay [1] (setting [3]), 16 mg/L; in assay [1] (setting [4]), 16 mg/L; in the assay with S. aureus Mu50 (setting [5]), 8 mg/L; in the assay with S. aureus Mu50 (setting [6]) it was 8 mg/L; in the assay on S. aureus Mu50 NR1-1, 16 mg/L. For the same compound, the MIC ratio with S. aureus Mu50 is listed as 2.

Consider `COc1cc(O)c2c(=O)c(OC)c(-c3cc(O)c(OC)c(OC)c3)oc2c1` [No. 24, 5-hydroxy-2-(3-hydroxy-4,5-dimethoxyphenyl)-3,7-dimethoxychromen-4-one], for which the MIC is 128 mg/L (≈ 342 µM) in assay [1] (setting [2]); 128 mg/L (≈ 342 µM) in assay [1] (setting [3]); 128 mg/L (≈ 342 µM) in assay [1] (setting [4]); 8 mg/L (≈ 21.4 µM) with S. aureus Mu50 (setting [5]); 8 mg/L (≈ 21.4 µM) with S. aureus Mu50 (setting [6]); 128 mg/L (≈ 342 µM) with S. aureus Mu50 NR1-1. In addition, in the assay with S. aureus Mu50, the MIC ratio was determined as 16.

On to `COc1ccc2c(=O)cc(-c3ccc(O)cc3)oc2c1` [No. 69, 2-(4-hydroxyphenyl)-7-methoxychromen-4-one], for which the MIC was greater than 128 mg/L in assay [1] (setting [2]); 128 mg/L (≈ 477 µM) in assay [1] (setting [3]); greater than 128 mg/L in assay [1] (setting [4]); 16 mg/L (≈ 59.6 µM) with S. aureus Mu50 (setting [5]); 8 mg/L (≈ 29.8 µM) with S. aureus Mu50 (setting [6]); greater than 128 mg/L in the assay on S. aureus Mu50 NR1-1. The MIC ratio in the assay with S. aureus Mu50 is reported as 16.

Turning to `CCn1cc(C(=O)O)c(=O)c2cc(F)c(N3CCNCC3)cc21` [Norfloxacin, norfloxacin, reference compound], the MIC in assay [1] (setting [3]) worked out at 0.5 mg/L (≈ 1.57 µM); in assay [1] (setting [4]), 0.5 mg/L (≈ 1.57 µM); in the assay with S. aureus Mu50 (setting [6]), 64 mg/L (≈ 200 µM); in the assay on S. aureus Mu50 NR1-1 it was 16 mg/L (≈ 50.1 µM). In addition, in the assay with S. aureus Mu50, the MIC ratio was found to be 0.008.

Regarding `COc1cc(-c2oc3c(OC)c(O)cc(O)c3c(=O)c2O)ccc1O` [No. 38, 3,5,7-trihydroxy-2-(4-hydroxy-3-methoxyphenyl)-8-methoxychromen-4-one], the MIC in assay [1] (setting [2]) is 128 mg/L (≈ 370 µM); in assay [1] (setting [3]) it was 128 mg/L (≈ 370 µM); in assay [1] (setting [4]), 128 mg/L (≈ 370 µM); in the assay on S. aureus Mu50 (setting [5]) it was 32 mg/L (≈ 92.4 µM); in the assay on S. aureus Mu50 (setting [6]), 32 mg/L (≈ 92.4 µM); with S. aureus Mu50 NR1-1, 64 mg/L (≈ 185 µM). In addition, the MIC ratio in the assay on S. aureus Mu50 came out at 4.

On to `COc1ccc2c(=O)cc(-c3ccccc3)oc2c1` [No. 15, 7-Methoxyflavone], for which the MIC in assay [1] (setting [2]) turned out to be 128 mg/L (≈ 507 µM); in assay [1] (setting [3]), 128 mg/L (≈ 507 µM); in assay [1] (setting [4]) it was 128 mg/L (≈ 507 µM); in the assay with S. aureus Mu50 (setting [5]), 32 mg/L (≈ 127 µM); with S. aureus Mu50 (setting [6]), 32 mg/L (≈ 127 µM); in the assay on S. aureus Mu50 NR1-1, 128 mg/L (≈ 507 µM). For the same compound, in the assay with S. aureus Mu50, the MIC ratio was 4.

For `O=c1cc(-c2ccc(O)c(O)c2)oc2cc(O)cc(O)c12` [No. 6, 3′,4′,5,7-Tetrahydroxyflavone], the MIC in assay [1] (setting [2]) came to 32 mg/L (≈ 112 µM); in assay [1] (setting [3]) it was 32 mg/L (≈ 112 µM); in assay [1] (setting [4]), 32 mg/L (≈ 112 µM); with S. aureus Mu50 (setting [6]), 8 mg/L (≈ 27.9 µM); with S. aureus Mu50 NR1-1, 32 mg/L (≈ 112 µM). The MIC ratio in the assay on S. aureus Mu50 came out at 4.
